Data published in PubChem BioAssay (NCI).
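Interpolation was linear, between the two tested concentrations surrounding the appropriate level; five concentrations were tested over 48 hours in 96-well plates. Abbreviation: GI50, concentration required for 50% inhibition of growth. TGI denotes the concentration required for complete inhibition of growth.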

Columns and labels:
Assay in all cases: inhibition of tumour cell growth, NCI panel, 48 h
MDA-MB-435 = tested on: MDA-MB-435
UACC-62 melanoma = tested on: UACC-62 melanoma
MCF7 breast = tested on: MCF7 breast
HS 578T breast = tested on: HS 578T breast
K-562 leukemia = tested on: K-562 leukemia
ACHN renal = tested on: ACHN renal
SN12C renal = tested on: SN12C renal
HL-60(TB) leukemia = tested on: HL-60(TB) leukemia
M14 melanoma = tested on: M14 melanoma
SNB-75 CNS = tested on: SNB-75 CNS

CCOC(=O)Nc1sc2c(c1C#N)CCCC2
TGI (MDA-MB-435): > 100 µM | TGI (UACC-62 melanoma): > 100 µM | TGI (MCF7 breast): > 100 µM | TGI (HS 578T breast): > 100 µM | TGI (K-562 leukemia): > 100 µM | TGI (ACHN renal): > 100 µM | TGI (SN12C renal): > 100 µM | TGI (HL-60(TB) leukemia): > 100 µM

Nc1nc(SCCC/C=C/I)nc2c1ncn2C1OC(COP(=O)(O)O)C(O)C1O (stereo not given)
TGI (M14 melanoma): > 100 µM | TGI (UACC-62 melanoma): > 100 µM | TGI (SNB-75 CNS): > 100 µM | TGI (K-562 leukemia): > 100 µM | TGI (ACHN renal): > 100 µM | TGI (SN12C renal): > 100 µM | TGI (HL-60(TB) leukemia): > 100 µM

COC(=O)[C@@H](O)[C@](O)(CCC(C)C)C(=O)O[C@@H]1C(OC)=C[C@]23CCCN2CCc2cc4c(cc2[C@H]13)OCO4
TGI (UACC-62 melanoma): 29.4 µM | TGI (MCF7 breast): 2.18 µM | TGI (SNB-75 CNS): 14.1 µM | TGI (K-562 leukemia): 23 µM | TGI (SN12C renal): 10.3 µM | TGI (HL-60(TB) leukemia): 2.96 µM

CCCCCCCC/C=C\CCCCCCCCCCCC(=O)O
TGI (UACC-62 melanoma): 102 µM | TGI (MCF7 breast): 33.8 µM | TGI (SNB-75 CNS): 113 µM | TGI (K-562 leukemia): 47.4 µM | TGI (SN12C renal): > 98 µM | TGI (HL-60(TB) leukemia): 34.6 µM

O=[N+]([O-])c1ccc2[nH]nc(OCc3ccccc3Cl)c2c1
TGI (MDA-MB-435): > 100 µM | TGI (M14 melanoma): > 100 µM | TGI (UACC-62 melanoma): 88.8 µM | TGI (HS 578T breast): > 100 µM | TGI (SNB-75 CNS): > 100 µM | TGI (K-562 leukemia): > 100 µM | TGI (ACHN renal): 62.1 µM | TGI (SN12C renal): > 100 µM | TGI (HL-60(TB) leukemia): > 100 µM

CC1(C(=O)O)CCC2(C)CCC3(C)C(=CC(=O)C4C5(C)CCC(O)C(C)(C)C5CCC43C)C2C1 (stereo not given)
TGI (MDA-MB-435): > 100 µM | TGI (M14 melanoma): > 100 µM | TGI (UACC-62 melanoma): 42.5 µM | TGI (MCF7 breast): > 100 µM | TGI (HS 578T breast): 65.7 µM | TGI (SNB-75 CNS): > 100 µM | TGI (ACHN renal): 42.2 µM | TGI (SN12C renal): > 100 µM | TGI (HL-60(TB) leukemia): 51.3 µM

N#C/C(=C1/Sc2c(nc[nH]c2=O)N1c1ccccc1)c1nc2ccccc2[nH]1
TGI (M14 melanoma): > 100 µM | TGI (UACC-62 melanoma): > 100 µM | TGI (SNB-75 CNS): > 100 µM | TGI (K-562 leukemia): > 100 µM | TGI (ACHN renal): > 100 µM | TGI (SN12C renal): > 100 µM | TGI (HL-60(TB) leukemia): > 100 µM

Cc1ccccc1C(=N)c1ccccc1Cc1cccc2ccccc12
TGI (MDA-MB-435): 52.9 µM | TGI (M14 melanoma): > 100 µM | TGI (UACC-62 melanoma): 38.6 µM | TGI (MCF7 breast): 48.6 µM | TGI (HS 578T breast): 26.3 µM | TGI (K-562 leukemia): > 100 µM | TGI (ACHN renal): > 100 µM | TGI (SN12C renal): 39.5 µM | TGI (HL-60(TB) leukemia): 42.2 µM

O=c1[nH]c(=S)[nH]c2c1C(c1ccc([N+](=O)[O-])cc1)c1c([nH]c(=S)[nH]c1=O)O2
TGI (MDA-MB-435): > 100 µM | TGI (M14 melanoma): > 100 µM | TGI (UACC-62 melanoma): > 100 µM | TGI (MCF7 breast): > 100 µM | TGI (HS 578T breast): > 100 µM | TGI (K-562 leukemia): > 100 µM | TGI (ACHN renal): > 100 µM | TGI (SN12C renal): > 100 µM | TGI (HL-60(TB) leukemia): > 100 µM

C#CCn1c(=O)c2ccccc2n(CC#C)c1=O
TGI (MDA-MB-435): > 10 µM | TGI (M14 melanoma): > 10 µM | TGI (MCF7 breast): > 10 µM | TGI (HS 578T breast): > 10 µM | TGI (SNB-75 CNS): > 10 µM | TGI (K-562 leukemia): > 10 µM | TGI (ACHN renal): > 10 µM | TGI (SN12C renal): > 10 µM

Nc1c(S(=O)(=O)O)cc2cc(S(=O)(=O)O)ccc2c1N=Nc1ccc(-c2ccc(N=Nc3c(N)c(S(=O)(=O)O)cc4cc(S(=O)(=O)O)ccc34)c(S(=O)(=O)O)c2)cc1
TGI (UACC-62 melanoma): > 100 µM | TGI (MCF7 breast): 51.4 µM | TGI (SNB-75 CNS): > 100 µM | TGI (K-562 leukemia): > 100 µM | TGI (SN12C renal): > 100 µM | TGI (HL-60(TB) leukemia): > 100 µM

COc1ccc(CN2C(=O)/C(=C\c3cc(OC)c(OC)c(OC)c3)c3ccccc32)cc1
GI50 (MDA-MB-435): 2.09 µM | TGI (MDA-MB-435): 5.08 µM | GI50 (M14 melanoma): 2.41 µM | TGI (M14 melanoma): 5.48 µM | GI50 (UACC-62 melanoma): 1.6 µM | TGI (UACC-62 melanoma): 3.51 µM | GI50 (MCF7 breast): 2.86 µM | TGI (MCF7 breast): 15.9 µM | GI50 (HS 578T breast): 3.78 µM | TGI (HS 578T breast): 55.5 µM | GI50 (SNB-75 CNS): 4.08 µM | TGI (SNB-75 CNS): > 100 µM | GI50 (ACHN renal): 2.06 µM | TGI (ACHN renal): 4.41 µM | GI50 (SN12C renal): 3.04 µM | TGI (SN12C renal): > 100 µM
